Experimental data reported in PMC7699847, “Acylated Aminooligosaccharides from the Yellow Sea Streptomyces sp. HO1518 as Both α-Glucosidase and Lipase Inhibitors” (Marine Drugs, 2020).
Where “and” joins values, the source holds several entries; their conditions need not be identical. Equal values may be shown once. Read-outs that look alike come from different tables or passages of the source.

Columns and labels:
sucrase = test: Sucrase inhibition assay; type: biochemical; settings: mean ± SD; triplicate; sucrose substrate, 37 °C; read-out: IC50 Values (μM) Against Sucrase
Description: 3.5.2. Sucrase Inhibition Assay
The sucrase inhibition assay was performed according to the method outlined by Honda et al. with some modifications. In brief, 10 µL of enzyme solution (100 U/mL) and 30 µL of test sample solution with appropriate concentration (dissolved in distilled water) were added into the 96-well plates, and were incubated for 10 min at 37 °C. The reaction was conducted by addition of 100 µL of sucrose solution (60 mM, dissolved in 0.1 M phosphate buffer solution). Then, the mixture was added to 200 µL of 3,5-dinitrosalysilic acid, which was heated in boiling water for 5 min to stop the reaction. The absorbance of each tested compound was measured at 540 nm. The inhibition rates were calculated using the following equation. All experiments were measured in triplicate, and a logarithmic regression curve was established to calculate IC50 values. (1) Inhibition % = Acontrol - Asample/Acontrol × 100 where Acontrol represents the absorbance of the mixture of […], sucrose solution 3,5-dinitrosalysilic acid and enzyme solution; while the Asample is the absorbance of the mixture of phosphate buffer, sucrose solution 3,5-dinitrosalysilic acid and enzyme solution.

pancreatic lipase (PL) = biological target: T1, pancreatic lipase (PL) (Sus scrofa, UniProt P00591); test: Pancreatic lipase (PL) inhibition assay (pNP laurate method); type: biochemical; settings: mean ± SD; triplicate; pNP laurate substrate, 30 min at 37 °C, Tris buffer pH 8.2; read-out: IC50 Values (μM) Against PL
T1 construct: purchased Sigma Aldrich Co. (St Louis, MO, USA)
T1 sequence (P00591 1-450): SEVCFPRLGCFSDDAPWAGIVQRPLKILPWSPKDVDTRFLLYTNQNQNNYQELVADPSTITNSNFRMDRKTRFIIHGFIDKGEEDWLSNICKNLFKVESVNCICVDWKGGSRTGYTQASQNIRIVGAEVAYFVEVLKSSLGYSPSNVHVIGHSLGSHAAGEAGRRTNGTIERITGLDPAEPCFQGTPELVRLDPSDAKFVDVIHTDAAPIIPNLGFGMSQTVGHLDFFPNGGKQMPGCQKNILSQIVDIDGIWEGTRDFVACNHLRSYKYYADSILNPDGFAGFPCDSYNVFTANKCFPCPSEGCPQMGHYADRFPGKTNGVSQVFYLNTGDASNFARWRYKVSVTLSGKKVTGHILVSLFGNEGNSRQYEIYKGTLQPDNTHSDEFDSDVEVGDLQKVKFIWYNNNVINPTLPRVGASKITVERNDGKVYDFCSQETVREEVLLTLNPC
Description: 3.6. Pancreatic Lipase (PL) Inhibition Assay
This assay was carried out using p-nitrophenyl laurate (pNP laurate) method with slight modification. In detail, 150 µL lipase solution (10 mg/mL, dissolved in the 0.1 M Tris buffer) was mixed with 50 µL tested sample solution (inhibitors) in a 1.5 mL centrifuge tube, then 350 µL 0.1 M Tris buffer (pH = 8.2) was added and pre-incubated. After the addition of 450 µL pNP laurate (substrate), the reaction was incubated for 30 min at 37 °C. The mixtures were heated in boiling water for 5 min to terminate the reaction. After cooling to RT, the tube was centrifuged at 12,000 rpm for 3 min. A portion of 100 µL of mixture was added into a 96-well plate, which was measured at 405 nm. The percentage of inhibitory activities was calculated using the formula below. All data were performed in triplicate, and a logarithmic regression curve was established to calculate IC50 values. (2) Inhibition% = [1 - (Asample - Ablank/Atest - Acontrol)] × 100 where Asample is the absorbance of the mixture of sample solution, pNP solution and enzyme solution; Ablank is the absorbance of the mixture of sample solution and pNP solution without enzyme; Atest is the absorbance of the mixture of Tris buffer, pNP solution and enzyme solution; Acontrol is the absorbance of the mixture of Tris buffer and pNP solution without enzyme.

[1] = biological target: T2, porcine pancreatic α-amylase (PPA) (Sus scrofa, UniProt P00690); test: Porcine pancreatic α-amylase (PPA) inhibition assay
T2 sequence (P00690 16-511): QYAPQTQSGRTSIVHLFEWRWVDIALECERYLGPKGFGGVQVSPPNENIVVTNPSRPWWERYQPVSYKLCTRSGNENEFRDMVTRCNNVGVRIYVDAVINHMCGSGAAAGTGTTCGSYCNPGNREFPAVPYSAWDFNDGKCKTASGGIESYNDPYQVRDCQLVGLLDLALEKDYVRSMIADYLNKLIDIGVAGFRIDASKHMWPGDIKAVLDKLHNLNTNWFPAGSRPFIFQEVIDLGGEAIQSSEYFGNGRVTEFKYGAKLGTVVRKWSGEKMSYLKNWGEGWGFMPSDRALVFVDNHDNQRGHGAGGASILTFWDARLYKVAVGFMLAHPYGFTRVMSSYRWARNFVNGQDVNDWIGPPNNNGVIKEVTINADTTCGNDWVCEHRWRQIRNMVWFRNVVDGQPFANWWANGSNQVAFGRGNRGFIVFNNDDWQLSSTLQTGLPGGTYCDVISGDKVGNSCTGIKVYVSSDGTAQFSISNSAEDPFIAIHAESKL

[2] = biological target: T2, porcine pancreatic α-amylase (PPA); set-up: purchased Sigma Aldrich Co. (St Louis, MO, USA); method as in PMID 30360574; settings: earlier study of the same authors; cited from earlier work

| IC50 (sucrase) [µM] | IC50 (pancreatic lipase (PL)) | IC50 [1] [µM] | IC50 ([1]; read-out: IC50 Values (μM) Against PPA, mean ± SD, acarbose as positive control) [µM] | SMILES | α-amylase IC50, fold stronger than acarbose [2] [fold] |
| --- | --- | --- | --- | --- | --- |
| 2.36 ± 0.12 | 15.9 ± 0.6 µM | – | – | CCC(=O)OC[C@H]1O[C@H](O[C@H]2[C@H](O)[C@@H](O)[C@@H](O[C@H]3[C@H](O)[C@@H](O)[C@@H](O[C@H]4[C@H](O)[C@@H](O)C(O)O[C@@H]4CO)O[C@@H]3CO)O[C@@H]2CO)[C@H](O)[C@@H](O)[C@@H]1O[C@H]1O[C@H](C)[C@@H](N[C@H]2C=C(CO)[C@@H](O)[C@H](O)[C@H]2O)[C@H](O)[C@H]1O (some centres unmarked) [Compound 6, D6-O-propionyl-acarviostatin I03] | – |
| 3.12 ± 0.1 | 4.92 ± 0.2 µM | 0.15 ± 0.01 | – | CCC(C)C(=O)OCC1OC(OC2C(CO)OC(OC3C(CO)OC(OC4C(CO)OC(O)C(O)C4O)C(O)C3O)C(O)C2O)C(O)C(O)C1OC1OC(C)C(NC2C=C(CO)C(O)C(O)C2O)C(O)C1O (centres unmarked) [Compound 2, D6-O-2-methyl-butyryl-acarviostatin I03] | – |
| 1.45 ± 0.07 | 0.82 ± 0.08 µM | – | 0.04 ± 0.01 | CC(C)C(=O)OCC1OC(OC2C(CO)OC(OC3C(CO)OC(OC4C(CO)OC(O)C(O)C4O)C(O)C3O)C(O)C2O)C(O)C(O)C1OC1OC(C)C(NC2C=C(CO)C(OC3OC(CO)C(OC4OC(C)C(NC5C=C(CO)C(O)C(O)C5O)C(O)C4O)C(O)C3O)C(O)C2O)C(O)C1O (centres unmarked) [Compound 3] | – |
| 3.68 ± 0.13 | 8.1 ± 0.6 µM | – | – | CC(O)CC(=O)OC[C@H]1O[C@H](O[C@H]2[C@H](O)[C@@H](O)[C@@H](O[C@H]3[C@H](O)[C@@H](O)[C@@H](O[C@H]4[C@H](O)[C@@H](O)C(O)O[C@@H]4CO)O[C@@H]3CO)O[C@@H]2CO)[C@H](O)[C@@H](O)[C@@H]1O[C@H]1O[C@H](C)[C@@H](N[C@H]2C=C(CO)[C@@H](O)[C@H](O)[C@H]2O)[C@H](O)[C@H]1O (stereo partly drawn) [Compound 7, D6-O-β-hydroxybutyryl-acarviostatin I03] | – |
| 2.98 ± 0.1 | 19.7 ± 1 µM | – | – | CC(=O)OC[C@H]1O[C@H](O[C@H]2[C@H](O)[C@@H](O)[C@@H](O[C@H]3[C@H](O)[C@@H](O)[C@@H](O[C@H]4[C@H](O)[C@@H](O)C(O)O[C@@H]4CO)O[C@@H]3CO)O[C@@H]2CO)[C@H](O)[C@@H](O)[C@@H]1O[C@H]1O[C@H](C)[C@@H](N[C@H]2C=C(CO)[C@@H](O)[C@H](O)[C@H]2O)[C@H](O)[C@H]1O (some centres unmarked) [Compound 5, D6-O-acetyl-acarviostatin I03] | – |
| 0.41 ± 0.05 | 2 ± 0.18 µM | – | – | CC(=O)OC[C@H]1O[C@H](O[C@H]2[C@H](O)[C@@H](O)[C@@H](O[C@H]3[C@H](O)[C@@H](O)[C@@H](O[C@H]4[C@H](O)[C@@H](O)C(O)O[C@@H]4CO)O[C@@H]3CO)O[C@@H]2CO)[C@H](O)[C@@H](O)[C@@H]1O[C@H]1O[C@H](C)[C@@H](N[C@H]2C=C(CO)[C@@H](O[C@H]3O[C@H](CO)[C@@H](O[C@H]4O[C@H](C)[C@@H](N[C@H]5C=C(CO)[C@@H](O)[C@H](O)[C@H]5O)[C@H](O)[C@H]4O)[C@H](O)[C@H]3O)[C@H](O)[C@H]2O)[C@H](O)[C@H]1O (some centres unmarked) [Compound 8, D6-O-acetyl-acarviostatin II03] | 540 |
| 5.5 ± 0.09 | 2.16 ± 0.6 µM | 0.22 ± 0.04 | – | CC(C)C(=O)OCC1OC(OC2C(CO)OC(OC3C(CO)OC(OC4C(CO)OC(O)C(O)C4O)C(O)C3O)C(O)C2O)C(O)C(O)C1OC1OC(C)C(NC2C=C(CO)C(O)C(O)C2O)C(O)C1O (centres unmarked) [Compound 1] | – |
| 9.34 ± 0.12 | 3.2 ± 0.1 µM | 0.34 ± 0.07 | – | CC(C)CC(=O)OC[C@H]1O[C@H](O[C@H]2[C@H](O)[C@@H](O)[C@@H](O[C@H]3[C@H](O)[C@@H](O)[C@@H](O[C@H]4[C@H](O)[C@@H](O)C(O)O[C@@H]4CO)O[C@@H]3CO)O[C@@H]2CO)[C@H](O)[C@@H](O)[C@@H]1O[C@H]1O[C@H](C)[C@@H](N[C@H]2C=C(CO)[C@@H](O)[C@H](O)[C@H]2O)[C@H](O)[C@H]1O (some centres unmarked) [Compound 4, isovalertatin M03] | – |
| 11.3 ± 0.2 | > 200 µM and 208 µM | – | – | C[C@H]1O[C@H](O[C@H]2[C@H](O)[C@@H](O)[C@@H](O[C@H]3[C@H](O)[C@@H](O)C(O)O[C@@H]3CO)O[C@@H]2CO)[C@H](O)[C@@H](O)[C@@H]1N[C@H]1C=C(CO)[C@@H](O)[C@H](O)[C@H]1O (some centres unmarked) [acarbose, reference compound] | – |
